Structures can show the parent of a compound that is named as a salt.
Molecular target: T1, human active recombinant p38 (p38α) (Homo sapiens, UniProt Q16539)
T1 construct: 6His
Assay: p38 Alpha Enzyme Assay (AlphaScreen, biotinylated-ATF2 substrate)
Format: biochemical
Conditions: means of replicate determinations; pre-incubated for 4 hours at 37° C.; SD of assay between 0.2 and 0.3 log units
Protocol: The ability of the compounds of formula (I) to inhibit p38 kinase may be determined using the following biological assay:
Enzyme assays were performed in polypropylene 96 well plates. The following solutions were added to each well; 10 μL of compound dilutions in assay buffer (20 mM HEPES pH 7.4, containing 20 mM magnesium acetate, 0.005% (w/v) Tween-20, 10 mM DTT) containing 1% (v/v) DMSO or assay buffer containing 1% (v/v) DMSO alone, 70 μL of assay buffer containing 36 nM substrate (biotinylated-ATF2) and 10 μL of an appropriate dilution of human active recombinant p38-6H is tagged. Depending on batch of p38, an appropriate dilution was typically a 5 nM solution to give a final enzyme concentration of 0.5 nM. At this stage, background control wells also received 50 μL of AlphaScreen quench buffer (10 mM HEPES pH 7.4 containing 100 mM EDTA, 0.2% (w/v) bovine serum albumin). The plate was covered, pre-incubated for 4 hours at 37° C. and the enzyme reaction initiated by addition of 10 μL 1 mM ATP. After incubation for a further 45 minutes at 37° C., the reaction was stopped by addition of 50 μL quench reagent and 50 μL of the quenched reaction mixture transferred to an opaque, white 96-well plate. Detection reagent, 25 μL of 10 mM HEPES pH 7.4 containing 100 mM EDTA, 0.2% (w/v) bovine serum albumin, 0.3 nM anti phosphoATF2 antibody and 25 μg/mL of AlphaScreen protein A acceptor and donor beads' (PerkinElmer Inc.), was added to all wells in a darkened room, the plate sealed and left in the dark for at least 5 hours before AlphaScreen readings were taken using a Perkin Elmer EnVision reader. Total, uninhibited activity was determined from assays performed in each assay plate. The mean control in the absence of p38 activity was subtracted from each well. Data were expressed as percent inhibition of total activity using equation 1. Percent Inhibition=100*(1−Test/Control) Eq.1 Where . . . Test=p38 kinase activity in the presence of compound Control=p38 kinase activity in the absence of compound.
pIC50 is defined as the logarithm of the reciprocal of the concentration of compound required for 50% reduction in total p38 kinase activity.
The standard deviation of the p38 enzyme inhibition assay is between 0.2 and 0.3 log units.

T1 sequence (Q16539 whole entry): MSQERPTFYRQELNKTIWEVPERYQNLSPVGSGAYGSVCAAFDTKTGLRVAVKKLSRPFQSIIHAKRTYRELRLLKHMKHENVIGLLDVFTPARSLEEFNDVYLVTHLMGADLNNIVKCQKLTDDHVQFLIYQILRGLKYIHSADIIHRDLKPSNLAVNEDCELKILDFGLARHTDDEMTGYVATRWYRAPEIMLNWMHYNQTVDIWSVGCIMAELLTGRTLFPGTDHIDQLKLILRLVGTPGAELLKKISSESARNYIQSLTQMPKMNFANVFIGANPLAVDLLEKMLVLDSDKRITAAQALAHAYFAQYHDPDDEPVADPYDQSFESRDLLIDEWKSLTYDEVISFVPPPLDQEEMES

Q: `Cc1c(F)cc(C(=O)NC2CC2)cc1-c1ccc2c(=O)n(CC(C)(C)CO)cc(CN3CCN[C@H](CO)C3)c2c1` [Example 17, N-Cyclopropyl-3-fluoro-5-(2-(3-hydroxy-2,2-dimethylpropyl)-4-(((3S)-3-(hydroxymethyl)piperazin-1-yl)methyl)-1-oxo-1,2-dihydroisoquinolin-6-yl)-4-methylbenzamide] was tested. Which “p38α inhibition Mean pIC50” value did it give?
A: Its value is 9.6.

Q: For `Cc1c(F)cc(C(=O)NC2CC2)cc1-c1ccc2c(=O)n(CC(C)(C)CO)cc(CN3CCC[C@H](N)C3)c2c1` [Example 25, 3-[4-{[(3S)-3-Aminopiperidin-1-yl]methyl}-2-(3-hydroxy-2,2-dimethylpropyl)-1-oxo-1,2-dihydroisoquinolin-6-yl]-N-cyclopropyl-5-fluoro-4-methylbenzamide], which “p38α inhibition Mean pIC50” value is on record?
A: The value was 8.8.

Same assay, conditions: means of replicate determinations; pre-incubated for 4 hours at 37° C.; SD of assay between 0.2 and 0.3 log units; read-out: p38α inhibition Mean pIC50 (converted)

Q: How did the IC50 turn out when `Cc1c(F)cc(C(=O)NC2CC2)cc1-c1ccc2c(=O)n(CC[C@H](C)O)cc(CN3CCNCC3)c2c1` [Example 9, N-Cyclopropyl-3-fluoro-5-{2-[(3S)-3-hydroxybutyl]-1-oxo-4-(piperazin-1-ylmethyl)-1,2-dihydroisoquinolin-6-yl}-4-methylbenzamide] was run?
A: The IC50 was 1.58 nM.

Q: With `Cc1c(F)cc(C(=O)NC2CC2)cc1-c1ccc2c(=O)n(CCCO)cc(CN3CCNCC3)c2c1` [Example 10, N-Cyclopropyl-3-fluoro-5-[2-(3-hydroxypropyl)-1-oxo-4-(piperazin-1-ylmethyl)-1,2-dihydroisoquinolin-6-yl]-4-methylbenzamide] as the compound, how does the IC50 read?
A: The IC50 was 0.0794 nM.

Q: With `Cc1c(F)cc(C(=O)NC2CC2)cc1-c1ccc2c(=O)n(CC(C)(C)CO)cc(CN3CCN[C@@H](CO)C3)c2c1` [Example 11, N-Cyclopropyl-3-fluoro-5-(2-(3-hydroxy-2,2-dimethylpropyl)-4-(((3R)-3-(hydroxymethyl)piperazin-1-yl)methyl)-1-oxo-1,2-dihydroisoquinolin-6-yl)-4-methylbenzamide] as the compound, how does the IC50 read?
A: The IC50 was 0.158 nM.

Q: How did the IC50 turn out when `Cc1c(F)cc(C(=O)NC2CC2)cc1-c1ccc2c(=O)n(CC3(CO)CC3)cc(CN3CCN[C@@H](CO)C3)c2c1` [Example 12, N-Cyclopropyl-3-fluoro-5-(2-((1-(hydroxymethyl)cyclopropyl)methyl)-4-(((3R)-3-(hydroxymethyl)piperazin-1-yl)methyl)-1-oxo-1,2-dihydroisoquinolin-6-yl)-4-methylbenzamide] was run?
A: Its IC50 is 0.398 nM.

Q: How did the IC50 turn out when `COCCCn1cc(CN2CCN[C@@H](CO)C2)c2cc(-c3cc(C(=O)NC4CC4)cc(F)c3C)ccc2c1=O` [Example 13] was run?
A: The IC50 was 0.501 nM.

Q: For `Cc1c(F)cc(C(=O)NC2CC2)cc1-c1ccc2c(=O)n(CCC(C)(C)O)cc(CN3CCN[C@@H](CO)C3)c2c1` [Example 14, N-Cyclopropyl-3-fluoro-5-(2-(3-hydroxy-3-methylbutyl)-4-(((3R)-3-(hydroxymethyl)piperazin-1-yl)methyl)-1-oxo-1,2-dihydroisoquinolin-6-yl)-4-methylbenzamide], which IC50 is on record?
A: Its IC50 is 0.501 nM.

Q: With `Cc1c(F)cc(C(=O)NC2CC2)cc1-c1ccc2c(=O)n(CC3(CO)CC3)cc(CN3CCN[C@H](CO)C3)c2c1` [Example 15, N-Cyclopropyl-3-fluoro-5-(2-((1-(hydroxymethyl)cyclopropyl)methyl)-4-(((3S)-3-(hydroxymethyl)piperazin-1-yl)methyl)-1-oxo-1,2-dihydroisoquinolin-6-yl)-4-methylbenzamide] as the compound, how does the IC50 read?
A: The IC50 was 0.501 nM.

Q: For `Cc1c(F)cc(C(=O)NC2CC2)cc1-c1ccc2c(=O)n(CC3(CO)CC3)cc(CN3CCNC[C@@H]3CO)c2c1` [Example 16, N-Cyclopropyl-3-fluoro-5-(2-((1-(hydroxymethyl)cyclopropyl)methyl)-4-(((2R)-2-(hydroxymethyl)piperazin-1-yl)methyl)-1-oxo-1,2-dihydroisoquinolin-6-yl)-4-methylbenzamide], which IC50 is on record?
A: The IC50 was 0.251 nM.

Q: For `Cc1c(F)cc(C(=O)NC2CC2)cc1-c1ccc2c(=O)n(C[C@H](C)CO)cc(CN3CCNCC3)c2c1` [Example 18, N-Cyclopropyl-3-fluoro-5-{2-[(2S)-3-hydroxy-2-methylpropyl]-1-oxo-4-(piperazin-1-ylmethyl)-1,2-dihydroisoquinolin-6-yl}-4-methylbenzamide], which IC50 is on record?
A: The IC50 was 0.794 nM.

Q: Which IC50 does the source give for `Cc1c(F)cc(C(=O)NC2CC2)cc1-c1ccc2c(=O)n(CC3(CO)CC3)cc(CN3CCNCC3)c2c1` [Example 19, N-Cyclopropyl-3-fluoro-5-[2-{[1-(hydroxymethyl)cyclopropyl]methyl}-1-oxo-4-(piperazin-1-ylmethyl)-1,2-dihydroisoquinolin-6-yl]-4-methylbenzamide] here?
A: The IC50 was 0.398 nM.

Q: How did the IC50 turn out when `Cc1c(F)cc(C(=O)NC2CC2)cc1-c1ccc2c(=O)n(C[C@@H](C)CO)cc(CN3CCNCC3)c2c1` [Example 20, N-Cyclopropyl-3-fluoro-5-{2-[(2R)-3-hydroxy-2-methylpropyl]-1-oxo-4-(piperazin-1-ylmethyl)-1,2-dihydroisoquinolin-6-yl}-4-methylbenzamide] was run?
A: The IC50 was 0.794 nM.

Q: `Cc1c(F)cc(C(=O)NC2CC2)cc1-c1ccc2c(=O)n(CC(C)(C)CO)cc(CN3CCNC[C@H]3CO)c2c1` [Example 21, N-Cyclopropyl-3-fluoro-5-[2-(3-hydroxy-2,2-dimethylpropyl)-4-{[(2S)-2-(hydroxymethyl)piperazin-1-yl]methyl}-1-oxo-1,2-dihydroisoquinolin-6-yl]-4-methylbenzamide] was tested. Which IC50 did it give?
A: The IC50 was 0.251 nM.

Q: `Cc1c(F)cc(C(=O)NC2CC2)cc1-c1ccc2c(=O)n(CC(C)(C)CO)cc(CN3CCNC[C@@H]3CO)c2c1` [Example 22, N-Cyclopropyl-3-fluoro-5-[2-(3-hydroxy-2,2-dimethylpropyl)-4-{[(2R)-2-(hydroxymethyl)piperazin-1-yl]methyl}-1-oxo-1,2-dihydroisoquinolin-6-yl]-4-methylbenzamide] was tested. Which IC50 did it give?
A: The IC50 was 0.158 nM.

Q: `Cc1c(F)cc(C(=O)NC2CC2)cc1-c1ccc2c(=O)n(CC(C)(C)CO)cc(CN3CCCNCC3)c2c1` [Example 23, N-Cyclopropyl-3-[4-(1,4-diazepan-1-ylmethyl)-2-(3-hydroxy-2,2-dimethylpropyl)-1-oxo-1,2-dihydroisoquinolin-6-yl]-5-fluoro-4-methylbenzamide] was tested. Which IC50 did it give?
A: The IC50 was 0.316 nM.

Q: Which IC50 does the source give for `Cc1c(F)cc(C(=O)NC2CC2)cc1-c1ccc2c(=O)n(CC(C)(C)CO)cc(CN3CCN(C)CC3)c2c1` [Example 24, N-Cyclopropyl-3-fluoro-5-{2-(3-hydroxy-2,2-dimethylpropyl)-4-[(4-methylpiperazin-1-yl)methyl]-1-oxo-1,2-dihydroisoquinolin-6-yl}-4-methylbenzamide] here?
A: The IC50 was 0.631 nM.

Q: Which IC50 does the source give for `Cc1c(F)cc(C(=O)NC2CC2)cc1-c1ccc2c(=O)n(CC3(CO)CCC3)cc(CN3CCNCC3)c2c1` [Example 27, N-Cyclopropyl-3-fluoro-5-[2-{[1-(hydroxymethyl)cyclobutyl]methyl}-1-oxo-4-(piperazin-1-ylmethyl)-1,2-dihydroisoquinolin-6-yl]-4-methylbenzamide] here?
A: Its IC50 is 0.316 nM.

Q: With `Cc1c(F)cc(C(=O)NC2CC2)cc1-c1ccc2c(=O)n(CC(C)(C)CO)cc(CN3CCNC[C@@H]3C)c2c1` [Example 28, N-Cyclopropyl-3-fluoro-5-[2-(3-hydroxy-2,2-dimethylpropyl)-4-{[(2S)-2-methylpiperazin-1-yl]methyl}-1-oxo-1,2-dihydroisoquinolin-6-yl]-4-methylbenzamide] as the compound, how does the IC50 read?
A: Its IC50 is 0.794 nM.

Q: Which IC50 does the source give for `Cc1c(F)cc(C(=O)NC2CC2)cc1-c1ccc2c(=O)n(CC(C)(C)CO)cc(CN3CCN[C@@H](C)C3)c2c1` [Example 29, N-Cyclopropyl-3-fluoro-5-[2-(3-hydroxy-2,2-dimethylpropyl)-4-{[(3S)-3-methylpiperazin-1-yl]methyl}-1-oxo-1,2-dihydroisoquinolin-6-yl]-4-methylbenzamide hydrochloride] here?
A: The IC50 was 0.794 nM.
